The IC50 is the midpoint of a concentration-inhibition curve.

This is an account of results in patent US12492188B2, “1H-benzo[D]imidazole derivatives as TLR9 inhibitors for the treatment of fibrosis” (BRISTOL-MYERS SQUIBB COMPANY, priority 2020, dated 2025).

Like-named read-outs stand apart in the source and are kept apart here.

The target in the experiment is T1, human TLR9 (Homo sapiens, UniProt Q9NR96).
T1 construct: host or cells: HEK-Blue cells (HEK293-derived reporter line)
T1 sequence (Q9NR96 26-1032): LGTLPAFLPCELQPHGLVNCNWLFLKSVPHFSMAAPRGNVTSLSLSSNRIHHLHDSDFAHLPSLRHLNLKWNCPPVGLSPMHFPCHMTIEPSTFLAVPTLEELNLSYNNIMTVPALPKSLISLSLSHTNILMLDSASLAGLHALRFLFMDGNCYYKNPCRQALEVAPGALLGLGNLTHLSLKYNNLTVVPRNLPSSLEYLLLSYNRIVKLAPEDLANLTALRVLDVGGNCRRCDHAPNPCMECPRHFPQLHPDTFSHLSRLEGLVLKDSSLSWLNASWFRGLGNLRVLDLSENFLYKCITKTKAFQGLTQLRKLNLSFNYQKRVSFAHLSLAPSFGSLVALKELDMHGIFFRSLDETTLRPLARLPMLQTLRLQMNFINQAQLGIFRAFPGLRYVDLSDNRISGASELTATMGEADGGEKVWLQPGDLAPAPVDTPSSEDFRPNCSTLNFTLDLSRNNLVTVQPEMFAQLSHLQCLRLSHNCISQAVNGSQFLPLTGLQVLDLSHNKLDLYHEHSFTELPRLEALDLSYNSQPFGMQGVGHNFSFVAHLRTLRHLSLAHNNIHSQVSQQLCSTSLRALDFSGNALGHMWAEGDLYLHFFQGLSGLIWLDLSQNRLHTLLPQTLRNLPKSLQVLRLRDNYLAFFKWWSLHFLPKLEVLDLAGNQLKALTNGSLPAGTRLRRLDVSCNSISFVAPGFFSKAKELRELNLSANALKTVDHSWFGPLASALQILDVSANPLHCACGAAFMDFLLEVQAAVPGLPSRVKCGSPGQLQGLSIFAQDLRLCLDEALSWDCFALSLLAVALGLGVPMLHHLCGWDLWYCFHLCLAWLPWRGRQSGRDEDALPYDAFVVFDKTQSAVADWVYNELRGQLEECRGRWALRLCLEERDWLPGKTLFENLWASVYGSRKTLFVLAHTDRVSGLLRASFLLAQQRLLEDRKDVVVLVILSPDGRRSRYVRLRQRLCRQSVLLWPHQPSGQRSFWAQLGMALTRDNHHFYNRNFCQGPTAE
The experiment is described as follows: TLR9 inhibition reporter assay (HEK-Blue cells, secreted embryonic alkaline phosphatase reporter). It is filed as cell-based. As to the method:
TLR7/8/9 Inhibition Reporter Assays
HEK-Blue™-cells (Invivogen) overexpressing human TLR7, TLR8 or TLR9 receptors were used for screening inhibitors of these receptors using an inducible SLAP (secreted embryonic alkaline phosphatase) reporter gene under the control of the […] minimal promoter fused to five NF-κB and AP-1-binding sites. Briefly, cells are seeded into Greiner 384 well plates (15000 cells per well for TLR7, 20,000 for TLR8 and 25,000 for TLR9) and then treated with test compounds in DMSO to yield a final dose response concentration range of 0.05 nM-50 μM. After a 30 minute compound pre-treatment at room temperature, the cells are then stimulated with a TLR7 ligand (gardiquimod at a final concentration of 7.5 μM), TLR8 ligand (R848 at a final concentration of 15.9 μM) or TLR9 ligand (ODN2006 at a final concentration of 5 nM) to activate NF-κB and AP-1 which induce the production of SLAP. After a 22 hour incubation at 37° C., […], SLAP levels are determined with the addition of HEK-Blue™ Detection reagent (Invivogen), a cell culture medium that allows for detection of SLAP, according to manufacturer's specifications. The percent inhibition is determined as the […] in the HEK-Blue signal present in wells treated with agonist plus DMSO alone compared to wells treated with a known inhibitor.
In general terms: Reporter assays use an easily measured gene product as a stand-in for the process of interest.

Where [1] appears, read: HEK-Blue cells overexpressing human TLR9, stimulated with ODN2006 5 nM, 22 hour incubation, reporter readout.
Where [2] appears, read: HEK-Blue cells overexpressing human TLR9, stimulated with ODN2006 5 nM, read-out: TLR 9 IC50.

Regarding `Cc1cc(C2CCN(C3CC4CCC(C3)N4C3CCC3)CC2)cc2c1nc(-c1ccc(S(C)(=O)=O)c(F)c1)n2C` (single isomer, unassigned) [Example 123, 6-(1-(8-cyclobutyl-8-azabicyclo[3.2.1]octan-3-yl)piperidin-4-yl)-2-(3-fluoro-4-(methylsulfonyl)phenyl)-1,4-dimethyl-1H-benzo[d]imidazole], the half-maximal inhibitory concentration (IC50) was 890 nM under setting [1] and 889 nM under setting [2].

Molecule `COc1ccc(-c2nc3c(C)cc(C4CCN(C5CC6CCC(C5)N6CC5CCC5)CC4)cc3n2C)cc1OC` (single isomer, unassigned) [Example 150, 6-(1-(8-(cyclobutylmethyl)-8-azabicyclo[3.2.1]octan-3-yl)piperidin-4-yl)-2-(3,4-dimethoxyphenyl)-1,4-dimethyl-1H-benzo[d]imidazole] yielded a concentration for half-maximal inhibition (IC50) of 32 nM. Besides, under setting [2], the IC50 was 32 nM.

With `COc1ccc(-c2nc3c(C)cc(C4CCN(C5CC6CCC(C5)N6CC5CCC5)CC4)cc3n2C)cc1OC` (single isomer, unassigned) [Example 151, 6-(1-(8-(cyclobutylmethyl)-8-azabicyclo[3.2.1]octan-3-yl)piperidin-4-yl)-2-(3,4-dimethoxyphenyl)-1,4-dimethyl-1H-benzo[d]imidazole], inhibition was half-maximal at 170 nM (IC50). For the same molecule, the concentration for half-maximal inhibition (IC50) under setting [2] was determined as 172 nM.

Consider `Cc1cc(C2CCN(C3CC4CCC(C3)N4CC3CC3)CC2)cc2c1nc(-c1ccc(S(C)(=O)=O)cc1)n2C` (single isomer, unassigned) [Example 155, 6-(1-(8-(cyclopropylmethyl)-8-azabicyclo[3.2.1]octan-3-yl)piperidin-4-yl)-1,4-dimethyl-2-(4-(methylsulfonyl)phenyl)-1H-benzo[d]imidazole], for which half-maximal inhibition (IC50) was put at 160 nM. Further, the 50% inhibitory concentration (IC50) under setting [2] came to 163 nM.

With `Cc1cc(C2CCN(C3CC4CCC(C3)N4CC3CCC3)CC2)cc2c1nc(-c1ccc(S(C)(=O)=O)cc1)n2C` (single isomer, unassigned) [Example 157, 6-(1-(8-(cyclobutylmethyl)-8-azabicyclo[3.2.1]octan-3-yl)piperidin-4-yl)-1,4-dimethyl-2-(4-(methylsulfonyl)phenyl)-1H-benzo[d]imidazole], the IC50 was 340 nM. Further, under setting [2], the IC50 is 339 nM.

Turning to `COc1cc(-c2nc3c(C)cc(C4CCN(C5CC6CCC(C5)N6C5CCC5)CC4)cc3n2C)cn2ncnc12` (single isomer, unassigned) [Example 356, 6-(6-(1-(8-cyclobutyl-8-azabicyclo[3.2.1]octan-3-yl)piperidin-4-yl)-1,4-dimethyl-1H-benzo[d]imidazol-2-yl)-8-methoxy-[1,2,4]triazolo[1,5-a]pyridine], the IC50 is, setting by setting: under setting [2], 41 nM; (HEK-Blue human TLR9 reporter cells) 41 nM.

With `COc1cc(-c2nc3c(C)cc(C4CCN(C5CCN(CC(C)C)CC5)CC4)cc3[nH]2)cn2ncnc12` [Example 61, 6-(6-(1′-isobutyl-[1,4′-bipiperidin]-4-yl)-4-methyl-1H-benzo[d]imidazol-2-yl)-8-methoxy-[1,2,4]triazolo[1,5-a]pyridine tris(2,2,2-trifluoroacetate)], the IC50 reads like this: under setting [1], 49 nM; under setting [2], 49 nM.

With `Cc1cc(C2CCN(C3CCN(CC(C)C)CC3)CC2)cc2[nH]c(-c3ccc(OC(F)(F)F)cc3)nc12` [Example 63, 6-(1′-isobutyl-[1,4′-bipiperidin]-4-yl)-4-methyl-2-(4-(trifluoromethoxy)phenyl)-1H-benzo[d]imidazole], the IC50 worked out at 200 nM under setting [1] and 196 nM under setting [2].

On to `COc1ccc(-c2nc3c(C)cc(C4CCN(C5CCN(CC(C)C)CC5)CC4)cc3[nH]2)cc1Cl` [Example 64, 2-(3-chloro-4-methoxyphenyl)-6-(1′-isobutyl-[1,4′-bipiperidin]-4-yl)-4-methyl-1H-benzo[d]imidazole], for which the IC50 turned out to be 91 nM under setting [1] and 91 nM under setting [2].

`Cc1cc(C2CCN(C3CCN(CC(C)C)CC3)CC2)cc2[nH]c(-c3ccc4c(c3)OC(F)(F)O4)nc12` [Example 65, 2-(2,2-difluorobenzo[d][1,3]dioxol-5-yl)-6-(1′-isobutyl-[1,4′-bipiperidin]-4-yl)-4-methyl-1H-benzo[d]imidazole tris(2,2,2-trifluoroacetate)]: the half-inhibitory concentration (IC50) turned out to be 300 nM under setting [1] and 297 nM under setting [2].

With `Cc1cc(C2CCN(C3CCN(CC(C)C)CC3)CC2)cc2[nH]c(-c3ccc(S(C)(=O)=O)c(F)c3)nc12` [Example 66, 2-(3-fluoro-4-(methylsulfonyl)phenyl)-6-(1′-isobutyl-[1,4′-bipiperidin]-4-yl)-4-methyl-1H-benzo[d]imidazole], the IC50 under setting [1] is 69 nM and the concentration for half-maximal inhibition (IC50) under setting [2] worked out at 69 nM.

With `Cc1cc(C2CCN(C3CCN(CC(C)C)CC3)CC2)cc2[nH]c(-c3ccc(S(C)(=O)=O)c(Br)c3)nc12` [Example 67, 2-(3-bromo-4-(methylsulfonyl)phenyl)-6-(1′-isobutyl-[1,4′-bipiperidin]-4-yl)-4-methyl-1H-benzo[d]imidazole], the IC50 was determined as 44 nM under setting [1] and 44 nM under setting [2].

Consider `Cc1cc(C2CCN(C3CCN(CC(C)C)CC3)CC2)cc2[nH]c(-c3ccc(C4CC4)cc3)nc12` [Example 68, 2-(4-cyclopropylphenyl)-6-(1′-isobutyl-[1,4′-bipiperidin]-4-yl)-4-methyl-1H-benzo[d]imidazole], for which the half-inhibitory concentration (IC50) under setting [1] stood at 85 nM and the 50% inhibitory concentration (IC50) under setting [2] worked out at 85 nM.

For the molecule `Cc1cc(C2CCN(C3CCN(CC(C)C)CC3)CC2)cc2[nH]c(-c3ccc(OC(F)F)c(F)c3)nc12` [Example 69, 2-(4-(difluoromethoxy)-3-fluorophenyl)-6-(1′-isobutyl-[1,4′-bipiperidin]-4-yl)-4-methyl-1H-benzo[d]imidazole tris(2,2,2-trifluoroacetate)], the IC50 came out at 240 nM under setting [1] and 241 nM under setting [2].

Consider `Cc1cc(C2CCN(C3CCN(CC(C)C)CC3)CC2)cc2[nH]c(-c3nc4ccccc4s3)nc12` [Example 70, 2-(6-(1′-isobutyl-[1,4′-bipiperidin]-4-yl)-4-methyl-1H-benzo[d]imidazol-2-yl)benzo[d]thiazole tris(2,2,2-trifluoroacetate)], for which the 50% inhibitory concentration (IC50) reads like this: under setting [1], 210 nM; under setting [2], 208 nM.

Consider `Cc1noc(C)c1-c1nc2c(C)cc(C3CCN(C4CCN(CC(C)C)CC4)CC3)cc2[nH]1` [Example 71, 4-(6-(1′-isobutyl-[1,4′-bipiperidin]-4-yl)-4-methyl-1H-benzo[d]imidazol-2-yl)-3,5-dimethylisoxazole], for which the IC50 runs as follows: under setting [1], 1800 nM; under setting [2], 1770 nM.

Turning to `Cc1cc(C2CCN(C3CCN(CC(C)C)CC3)CC2)cc2[nH]c(-c3cccc4ncccc34)nc12` [Example 72, 5-(6-(1′-isobutyl-[1,4′-bipiperidin]-4-yl)-4-methyl-1H-benzo[d]imidazol-2-yl)quinoline tris(2,2,2-trifluoroacetate)], the half-maximal inhibitory concentration (IC50) was found to be 88 nM under setting [1] and 88 nM under setting [2].

`Cc1cc(C2CCN(C3CCN(CC(C)C)CC3)CC2)cc2[nH]c(-c3ccc(OC(F)(F)F)c(Cl)c3)nc12` [Example 73, 2-(3-chloro-4-(trifluoromethoxy)phenyl)-6-(1′-isobutyl-[1,4′-bipiperidin]-4-yl)-4-methyl-1H-benzo[d]imidazole tris(2,2,2-trifluoroacetate)]: the IC50 under setting [1] came out at 270 nM and the IC50 under setting [2] is 270 nM.

As for `Cc1cc(C2CCN(C3CCN(CC(C)C)CC3)CC2)cc2[nH]c(-c3ccc4cnccc4c3)nc12` [Example 74, 6-(6-(1′-isobutyl-[1,4′-bipiperidin]-4-yl)-4-methyl-1H-benzo[d]imidazol-2-yl)isoquinoline], the half-maximal inhibitory concentration (IC50) under setting [1] came to 37 nM and the 50% inhibitory concentration (IC50) under setting [2] was determined as 37 nM.
